Consider 17 molecules from patent US9260429B2, “Pyrido[3,4-B]indoles and methods of use” (Medivation Technologies, Inc., priority 2008, dated 2016).

Assay [1] has as its target T1, human recombinant histamine H1 receptor (Homo sapiens, UniProt P35367).
T1 construct: expressed in transfected cells; host or cells: CHO cells
The experiment in a line: Histamine H1 radioligand binding ([3H]Pyrilamine). As to conditions: 1 μM; read-out: Binding data (Percentage Inhibition) Histamine Binding (1 μM) H1. In short, it runs like this: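 Binding to the human recombinant histamine H1 receptor, expressed in CHO cells, was measured in a modified Tris-HCl buffer (50 mM Tris-HCl, pH 7.4, 2 mM MgCl2, 100 mM NaCl, 250 mM Sucrose). Compounds were incubated with 1.2 nM [3H]Pyrilamine for 180 minutes at 25° C, with 1 μM pyrilamine defining non-specific binding. After filtration and washing, filter counts gave percent inhibition of specific binding.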

Assay [2] addresses T2, human recombinant histamine H2 receptor (Homo sapiens, UniProt P25021).
T2 construct: expressed in transfected cells; host or cells: CHO-K1 cells
In words: Histamine H2 radioligand binding ([125I]Aminopotentidine). The conditions noted are these: 1 μM; inhibition of specific [125I]Aminopotentidine binding; read-out: Binding data (Percentage Inhibition) Histamine Binding (1 μM) H2. In short, it runs like this: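 Membranes of CHO-K1 cells expressing human H2 receptor incubated with 0.1 nM [125I]aminopotentidine, 120 min, 25 °C, 50 mM phosphate pH 7.4; nonspecific binding defined with 3 μM tiotidine.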

Assay [3] deals with T3, human recombinant adrenergic α2B receptor (Homo sapiens, UniProt P18089).
T3 construct: expressed in transfected cells; host or cells: CHO-K1 cells
T3 sequence (P18089 1-450): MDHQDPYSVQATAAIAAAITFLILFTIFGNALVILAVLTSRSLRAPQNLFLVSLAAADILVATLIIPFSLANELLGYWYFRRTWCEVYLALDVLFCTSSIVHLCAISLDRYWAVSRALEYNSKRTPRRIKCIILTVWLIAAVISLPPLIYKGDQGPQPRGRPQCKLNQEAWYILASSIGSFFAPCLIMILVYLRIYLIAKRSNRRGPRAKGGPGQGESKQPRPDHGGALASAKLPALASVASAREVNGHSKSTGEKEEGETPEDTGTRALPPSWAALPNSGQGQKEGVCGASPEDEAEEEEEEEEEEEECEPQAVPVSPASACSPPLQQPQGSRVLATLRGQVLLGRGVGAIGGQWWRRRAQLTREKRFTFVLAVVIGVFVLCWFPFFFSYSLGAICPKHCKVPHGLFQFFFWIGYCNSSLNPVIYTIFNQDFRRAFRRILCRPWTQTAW
The experiment in a line: Adrenergic α2B radioligand binding ([3H]Rauwolscine). The conditions noted are these: 1 h; read-out: Percent Inhibition of ligand binding Adrenergic (1 μM ligand conc.) α2B. How it is done:
To evaluate in radioligand binding assays the activity of compounds of the invention, human recombinant adrenergic α2B receptor expressed in Chinese hamster ovary (CHO-K1) cells (Uhlen S et al. Eur J. Pharmacol. 343(1):93, 1998) in a modified Tris-HCl buffer (50 mM Tris-HCl, pH 7.4, 12.5 mM MgCl2, 1 mM EDTA, 0.2% BSA) was used. Compounds of the invention were incubated with 2.5 nM [^3H]Rauwolscine for 60 minutes at 25° C. Non-specific binding was estimated in the presence of 10 μM Prozosin. Receptor proteins were filtered and washed, the filters were then counted to determine [^3H]Rauwolscine specifically bound. Compounds were screened at 1 μM or lower, using 1% DMSO as vehicle. Biochemical assay results are presented as the percent inhibition of specific binding in Table 4.

Assay [4] addresses T4, human recombinant serotonin (5-Hydroxytryptamine) 5-HT2A receptor (Homo sapiens, UniProt P28223).
T4 construct: expressed in transfected cells; host or cells: CHO-K1 cells
The experiment in a line: Serotonin 5-HT2A radioligand binding ([3H]Ketanserin). The conditions noted are these: 1 h; read-out: Percent Inhibition of ligand binding Serotonin (1 μM ligand concentration) 5-HT2A. In short, it runs like this: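 Membranes from CHO-K1 cells expressing the receptor, in 50 mM Tris-HCl pH 7.4, incubated 60 min at 25° C with 0.5 nM [3H]Ketanserin; 1 μM Mianserin defines non-specific binding. Filtration and counting; values are % inhibition of specific binding at 1 μM or lower, 1% DMSO.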

For assay [5], the target named is T5, human recombinant serotonin (5-Hydroxytryptamine) 5-HT6 receptor (Homo sapiens, UniProt P50406).
T5 construct: expressed in transfected cells; host or cells: human HeLa cells
T5 sequence (P50406 whole entry): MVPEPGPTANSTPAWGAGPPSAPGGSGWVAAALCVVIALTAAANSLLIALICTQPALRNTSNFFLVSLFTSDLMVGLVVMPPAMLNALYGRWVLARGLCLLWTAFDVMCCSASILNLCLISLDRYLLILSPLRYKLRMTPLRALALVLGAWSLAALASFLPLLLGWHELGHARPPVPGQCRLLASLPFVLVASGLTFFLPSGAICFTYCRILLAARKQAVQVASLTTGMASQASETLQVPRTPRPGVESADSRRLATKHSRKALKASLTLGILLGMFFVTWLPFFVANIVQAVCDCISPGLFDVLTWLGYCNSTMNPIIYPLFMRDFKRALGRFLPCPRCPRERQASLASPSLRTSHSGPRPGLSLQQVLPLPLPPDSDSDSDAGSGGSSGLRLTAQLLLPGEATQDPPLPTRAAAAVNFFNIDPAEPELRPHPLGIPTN
In words: Serotonin 5-HT6 radioligand binding ([3H]LSD). As to conditions: 2 h; read-out: Percent Inhibition of ligand binding Serotonin (1 μM ligand concentration) 5-HT6. In short, it runs like this: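 Human 5-HT6 receptor expressed in HeLa cells, in Tris-HCl pH 7.4 with 150 mM NaCl, ascorbic acid and BSA. Compounds at 1 μM or lower (1% DMSO) incubated 120 min at 37° C with 1.5 nM [3H]LSD. Non-specific binding defined with serotonin; filter counting gives % inhibition of specific binding.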

T1 sequence (P35367 whole entry): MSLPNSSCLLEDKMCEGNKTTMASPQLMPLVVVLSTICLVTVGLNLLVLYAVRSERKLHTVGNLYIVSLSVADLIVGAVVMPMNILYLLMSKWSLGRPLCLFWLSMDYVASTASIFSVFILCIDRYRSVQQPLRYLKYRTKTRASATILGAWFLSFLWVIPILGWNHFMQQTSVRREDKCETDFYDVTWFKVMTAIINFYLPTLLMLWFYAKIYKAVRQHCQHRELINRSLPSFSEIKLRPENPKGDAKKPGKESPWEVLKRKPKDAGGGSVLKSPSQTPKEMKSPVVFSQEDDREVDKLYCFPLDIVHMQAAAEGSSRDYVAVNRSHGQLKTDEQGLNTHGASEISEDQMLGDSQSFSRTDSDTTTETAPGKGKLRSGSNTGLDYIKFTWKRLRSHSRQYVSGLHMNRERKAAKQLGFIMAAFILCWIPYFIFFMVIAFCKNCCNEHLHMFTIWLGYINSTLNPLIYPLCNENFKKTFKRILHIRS
T4 sequence (P28223 whole entry): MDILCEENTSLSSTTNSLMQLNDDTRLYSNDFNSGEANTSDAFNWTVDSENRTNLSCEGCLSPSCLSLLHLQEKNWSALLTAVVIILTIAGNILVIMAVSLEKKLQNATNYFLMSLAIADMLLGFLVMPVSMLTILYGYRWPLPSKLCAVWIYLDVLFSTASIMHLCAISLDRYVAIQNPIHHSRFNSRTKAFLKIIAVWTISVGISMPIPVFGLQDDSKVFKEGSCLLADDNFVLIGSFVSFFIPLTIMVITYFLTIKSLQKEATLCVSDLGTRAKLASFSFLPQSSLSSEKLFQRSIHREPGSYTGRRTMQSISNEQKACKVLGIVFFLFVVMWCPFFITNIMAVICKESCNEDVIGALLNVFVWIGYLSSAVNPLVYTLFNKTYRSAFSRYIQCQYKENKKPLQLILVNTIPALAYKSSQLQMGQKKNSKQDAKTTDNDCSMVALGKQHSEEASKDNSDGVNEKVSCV
T2 sequence (P25021 whole entry): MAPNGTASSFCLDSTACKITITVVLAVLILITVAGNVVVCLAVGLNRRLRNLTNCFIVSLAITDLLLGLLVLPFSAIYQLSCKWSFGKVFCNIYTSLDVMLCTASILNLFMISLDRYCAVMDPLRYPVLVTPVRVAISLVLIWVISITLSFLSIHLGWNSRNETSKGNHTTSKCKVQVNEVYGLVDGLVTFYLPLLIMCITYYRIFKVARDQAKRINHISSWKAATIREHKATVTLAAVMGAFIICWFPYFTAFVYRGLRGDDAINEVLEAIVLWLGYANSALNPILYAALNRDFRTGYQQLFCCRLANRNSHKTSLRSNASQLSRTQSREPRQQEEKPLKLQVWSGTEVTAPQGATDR

As for `CN1CCc2c(n(CC(O)c3ccccc3F)c3ccc(Cl)cc23)C1` (centres unmarked) [Compound 59, 2-(6-chloro-2-methyl-3,4-dihydro-1H-pyrido[3,4-b]indol-9(2H)-yl)-1-(2-fluorophenyl)ethanol], the inhibition at 1 µM was 13% in assay [1]; 28% in assay [2]; 97% in assay [3]; 80% in assay [4]; 60% in assay [5].
The matching figures for `C/C(=C/n1c2c(c3cc(C)ccc31)CCN(C)C2C)c1ccccc1F` (centres unmarked) [Compound 165]: 21%, 22%, 91%, 85% and 46%.
Turning to `CN1CCc2c(n(CC(O)c3ccccc3)c3ccc(Cl)cc23)C1` (centres unmarked) [Compound 71], the inhibition at 1 µM came to 54% in assay [1]; 11% in assay [2]; 95% in assay [3]; 87% in assay [4]; 66% in assay [5].
Turning to `Cc1ccc2c(c1)c1c(n2CC(=O)N2CCCCC2)CN(C)CC1` [Compound 57, 2-(2,6-dimethyl-3,4-dihydro-1H-pyrido[3,4-b]indol-9(2H)-yl)-1-(piperidin-1-yl)ethanone], the inhibition at 1 µM in assay [1] was determined as 0%; in assay [2] it was 10%; in assay [3] it was 29%; in assay [4], 28%; in assay [5], 6%.
The like results for `CCC1c2c(c3cc(C)ccc3n2C(=O)Cc2ccc(F)cc2)CCN1C` (centres unmarked) [Compound 159] were, in that order, 5%, 20%, 78%, 89% and 46%.
Consider `C/C(=C\n1c2c(c3cc(C)ccc31)CCN(C)C2C)c1ccc(Cl)cc1` (centres unmarked) [Compound 161, 9-(2-(4-chlorophenyl)prop-1-enyl)-1,2,6-trimethyl-2,3,4,9-tetrahydro-1H-pyrido[3,4-b]indole], for which the inhibition at 1 µM in assay [1] turned out to be 51%; in assay [2], 82%; in assay [3], 92%; in assay [4], 96%; in assay [5] it was 75%.
The matching figures for `CCC1c2c(c3cc(C)ccc3n2/C=C(\C)c2ccc(Cl)cc2)CCN1C` (centres unmarked) [Compound 160, 9-(2-(4-chlorophenyl)prop-1-enyl)-1-ethyl-2,6-dimethyl-2,3,4,9-tetrahydro-1H-pyrido[3,4-b]indole]: 31%, 67%, 75%, 95% and 24%.
Regarding `COc1ccc(C(O)Cn2c3c(c4cc(Cl)ccc42)CCN(C)C3)cc1OC` (centres unmarked) [Compound 70], the inhibition at 1 µM was determined as 39% in assay [1]; 1% in assay [2]; 77% in assay [3]; 56% in assay [4]; 21% in assay [5].
The like results for `CN1CCc2c(n(CCC3CCCC3)c3ccc(Cl)cc23)C1` [Compound 35, 6-chloro-9-(2-cyclopentylethyl)-2,3,4,9-tetrahydro-2-methyl-1H-pyrido[3,4-b]indole] were, in that order, 98%, 67%, 65%, 69% and 67%.
The matching figures for `CCC1c2c(c3cc(Cl)ccc3n2C#Cc2ccc(F)cc2)CCN1C` (centres unmarked) [Compound 129]: 8%, 26%, 81%, 85% and 22%.
As for `CN1CCc2c(n(CC(C)(O)c3ccc(F)cc3)c3ccc(Cl)cc23)C1` (centres unmarked) [Compound 62, 1-(6-chloro-2-methyl-3,4-dihydro-1H-pyrido[3,4-b]indol-9(2H)-yl)-2-(4-fluorophenyl)propan-2-ol], the inhibition at 1 µM in assay [1] came to 48%; in assay [2] it was 48%; in assay [3], 102%; in assay [4], 88%; in assay [5], 77%.
Consider `CN1CCc2c(n(CC(=O)NC3CCCCC3)c3ccc(Cl)cc23)C1` [Compound 17, 2-(6-chloro-1,2,3,4-tetrahydro-2-methylpyvrido[3,4-b]indol-9-yl)-N-cyclohexylacetamide], for which the inhibition at 1 µM in assay [1] was 54%; in assay [2] it was -6%; in assay [3], 14%; in assay [4] it was 17%; in assay [5] it was 3%.
As for `CN1CCc2c(n(CCc3ccc(F)cc3)c3ccc(Cl)cc23)C1` [Compound 3, 9-(4-fluorophenethyl)-6-chloro-2,3,4,9-tetrahydro-2-methyl-1H-pyrido[3,4-b]indole], the inhibition at 1 µM in assay [1] was 83%; in assay [2], 51%; in assay [3], 108%; in assay [5], 100%.
The matching figures for `Cc1ccc2c(c1)c1c(n2CCc2ccc(C)nc2)CN(C)CC1` [Compound 1, 2,3,4,9-tetrahydro-2,6-dimethyl-9-(2-(6-methylpyridin-3-yl)ethyl)-1H-pyrido[3,4-b]indole]: 77%, 5%, 99% and 5%.
The matching figures for `CC1CCN(C(=O)Cn2c3c(c4cc(Cl)ccc42)CCN(C)C3)CC1` [Compound 38, 2-(6-chloro-1,2,3,4-tetrahydro-2-methylpyrido[3,4-b]indol-9-yl)-1-(4-methylpiperidin-1-vyl)ethanone]: 16%, 3%, 15% and -2%.
With `C#CCn1c2c(c3cc(Cl)ccc31)CCN(C)C2` [Compound 125, 6-chloro-2,3,4,9-tetrahydro-2-methyl-9-(prop-2-yn1)-1H-pyrido[3,4-b]indole], the inhibition at 1 µM in assay [1] is 83%; in assay [2] it was 9%; in assay [3], 67%; in assay [5], 66%.
The matching figures for `Cc1ccc2c(c1)c1c(n2CCC2CCCCC2)CN(C)CC1` [Compound 2, 9-(2-cyclohexylethyl)-2,3,4,9-tetrahydro-2,6-dimethyl-1H-pyrido[3,4-b]indole]: 95%, 71%, 81% and 58%.
